Measurements reported in patent US20220151993A1, “TREATMENT OF ANXIETY AND DEPRESSION” (NEW YORK UNIVERSITY, priority 2020, published 2022).

Columns and labels:
[1] = tested on: patients with cancer-related psychiatric and existential distress; test: Hopelessness Assessment in Illness (HAI), long-term follow-up; assay type: in vivo, human; settings: for Hopelessness: single 0.3 mg/kg dose with psychotherapy, baseline 5.75, p < 0.001 vs baseline
Method: (§1) The present example assesses the long-term effects of a single dose of psilocybin (0.3 mg/kg) in conjunction with psychotherapy in patients with cancer-related psychiatric and existential distress.
(§2) 29 participants were randomly assigned to one of two groups: psilocybin (0.3 mg/kg) on the first medication session followed by niacin (250 mg) on the second session (i.e. psilocybin-first group), or niacin (250 mg) on the first medication session followed by psilocybin (0.3 mg/kg) on the second session (i.e. niacin-first group). Psilocybin and niacin were administered in identically appearing gelatin capsules.
(§3) Participants received three 2-hour preparatory psychotherapy sessions in order to review the purpose and intention of participation in the study, treatment goals, and structure of the treatment sessions. Medications were administered in 8-hour treatment sessions which included a discussion of the participant's subjective experience with the treatment team to consolidate the memory of the experience and to begin the process of post-integrative psychotherapy. Participants also received three 2-hour post-medication integration sessions (repeated after the second dosing session) to further consolidate the memory of the experience and to continue the process of psychological integration. All psychotherapy treatment sessions were delivered by a dyadic therapy team trained in a blend of psychotherapies with an evidence base to support their use in cancer patients (drawing upon principles of palliative care therapy, existential psychotherapy, cognitive-behavioural therapy, psychoanalysis therapy, and transpersonal psychology) and were taught about the safety and clinical pharmacology of psilocybin. Each therapy dyad underwent six confidential one-to-one sessions to build their alliance and exchange ideas about psychedelic therapy. The trial employed a crossover design at seven weeks following the first drug administration, with an outcome assessment at 6.5 months (26 weeks) following the second drug administration (i.e. after the crossover).
Two long-term follow ups (LTFUs) were carried out to assess the continued effect of psilocybin. Of the original 29 participants, all 16 participants who were not deceased at the time of LTFU were contacted (the remaining 13 participants were deceased). […]
Cancer-related existential distress (demoralization, hopelessness, attitudes and effects associated with disease progression and death) was assessed using the following methods: • The Death Anxiety Scale (DAS) (Templer, 1970)—a 15-item measure that has been used most frequently to assess death anxiety. Items are scored “true” and “false” and then scored as one and zero, respectively. […]

[2] = tested on: patients with cancer-related psychiatric and existential distress; test: Hospital Anxiety and Depression Scale (HADS), long-term follow-up of psilocybin-assisted psychotherapy trial; assay type: in vivo, human; settings: for HADS Depression / HADS Anxiety / HADS Total: single 0.3 mg/kg dose with psychotherapy; for HADS Depression: baseline 5.88; for HADS Anxiety: baseline 10.56; for HADS Total: baseline 16.45
Method: as §1, §2, §3
Two long-term follow ups (LTFUs) were carried out to assess the continued effect of psilocybin. Of the original 29 participants, all 16 participants who were not deceased at the time of LTFU were contacted (the remaining 13 participants were deceased). Of the 16 participants who were contacted, 15 agreed to participate in the LTFU and completed measures through a secure online portal. One participant died (from cancer-related complications) after completing the first LTFU and prior to the second LTFU, leaving us with 14 participants at the second LTFU. The first and second LTFUs occurred on average 3.2 years (range 2.3-4.5 years) and 4.5 years (range 3.5-5.5 years) following the participants' psilocybin dosing date, respectively.
Primary outcomes (anxiety and depression) were measured according to the following methods: • Hospital Anxiety and Depression Scale (HADS) (Zigmond and Snaith, 1983)—this is widely used in hospital settings to screen for the severity of anxiety and depression. It contains 14 questions rated on a four-point scale (total score (HAD-T) ranges from […]). Subscale scores can be calculated for depression (HADS-D) and anxiety (HADS-A). […] The HADS has shown good reliability (Cronbach's a ranging from 0.80-0.93) and has been well validated (Herrmann, 1997). • Beck Depression Inventory-II (BDI-II) (Beck et al., 1988)—a widely used self-report screening measure for depression. The BDI-II consists of 21 questions about depressive symptoms experienced over the past two weeks rated on a […] scale (total score ranges from 0-63). Scores above 12 indicate possible clinical depression. This measure has shown good reliability (internal consistency of 0.90) and factorial validity (Storch et al. 2004). • Spielberger State-Trait Anxiety Inventory (STAI) (Spielberger, 1983)—a well-known measure of anxiety consisting of scales for state (STAI-S) and trait-level anxiety (STAI-T). […]

[3] = tested on: patients with advanced-stage cancer; settings: single moderate dose 0.2 mg/kg; cited from earlier work
[4] = tested on: patients with cancer-related psychiatric and existential distress; test: Persisting Effects Questionnaire at second long-term follow-up; assay type: in vivo, human; settings: second LTFU (4.5 years, n=14)
Method: as §2, §3
Two long-term follow ups (LTFUs) were carried out to assess the continued effect of psilocybin. Of the original 29 participants, all 16 participants who were not deceased at the time of LTFU were contacted (the remaining 13 participants were deceased). Of the 16 participants who were contacted, 15 agreed to participate in the LTFU and completed measures through a secure online portal. One participant died (from cancer-related complications) after completing the first LTFU and prior to the second LTFU, leaving us with 14 participants at the second LTFU. […]
Persisting effects of psilocybin were assessed using the Persisting Effects Questionnaire (Griffiths et al., 2006, 2008) assesses self-rated changes in one's attitude, mood, behavior, and experience of spirituality. […]

[5] = tested on: patients with life-threatening cancer; settings: cited from earlier work
[6] = Spearman, second LTFU subtracted from two-weeks post-psilocybin dose scores, p<0.01
[7] = mean score at 3.2 years, p < 0.001 vs baseline
[8] = mean score at 4.5 years, p < 0.001 vs baseline
[9] = mean score at 6.5-8 months, p < 0.001 vs baseline

CN(C)CCc1c[nH]c2cccc(OP(=O)(O)O)c12 [psilocybin, [3-(2-dimethylaminoethyl)-1H-indol-4-yl] dihydrogen phosphate]
correlation (r) of length of time between psilocybin session and follow-up with HAI hopelessness change score [1, 6]: 0.69
Hopelessness ([1]; mean score at 3.2 years): 2.29
Hopelessness ([1]; mean score at 4.5 years): 1.65
Hopelessness ([1]; mean score at 6.5-8 months): 1.65
correlation (r) of length of time between psilocybin session and follow-up with HAD-D depression change score [2, 6]: 0.70
HADS Depression [2, 7]: 2.25
HADS Anxiety [2, 7]: 5.50
HADS Total [2, 7]: 7.13
HADS Depression ([2]; mean score at 4.5 years, p < 0.01 vs baseline): 2.30
HADS Anxiety [2, 8]: 4.99
HADS Total [2, 8]: 7.34
HADS Depression [2, 9]: 1.75
HADS Anxiety [2, 9]: 2.81
HADS Total [2, 9]: 4.38
participants with clinically significant reductions in global psychological distress on the HADS-T ([2]; second LTFU point (4.5 years, n=14), 50% or greater reduction relative to baseline): Seventy-one
participants with clinically significant anxiolytic response on the HADS-A ([2]; second LTFU point (4.5 years, n=14), response = 50% or greater reduction relative to baseline): 57%
adverse events [3]: no clinically significant adverse events
time after treatment up to which levels of anxiety were reduced [3]: up to 3 months
time after treatment up to which levels of depression were reduced [3]: up to 6 months
participants appraising the psilocybin session as increasing life satisfaction or wellbeing [4]: 86%
participants rating the psilocybin experience the single or top-five most personally meaningful experience(s) of their lives [4]: Seventy-one
participants rating the psilocybin experience the single or top-five most spiritually significant experience(s) of their lives [4]: ninety-six
volunteers reporting moderate, strong or extreme positive behavioral change attributed to the psilocybin experience [4]: 100%
patients meeting criteria for clinically significant antidepressant or anxiolytic responses ([5]; final 6.5 month follow up point, 0.3 mg/kg with psychotherapy): 60-80%
time post dosing up to which rapid and sustained anxiolytic and antidepressant effects were seen ([5]; single dosing session 0.3 mg/kg with psychotherapy): up to 7 weeks
